Measured values reported in patent publication US9387238B2, “CDCA1 epitope peptides and vaccines containing the same” (OncoTherapy Science, Inc., priority 2008, dated 2016).

Columns and labels:
[1] = system: peptide-pulsed A24LCL cells; assay: IFN-gamma ELISPOT assay on CTLs induced with CDCA1 peptides; type: cell-based, human; conditions: CTLs from HLA-A*2402 positive donor vs peptide-pulsed target cells, compared with the control
Source text: Monocyte-derived dendritic cells (DCs) were used as antigen-presenting cells (APCs) to induce cytotoxic T lymphocyte (CTL) responses against peptides presented on human leukocyte antigen (HLA). DCs were generated in vitro as described elsewhere (Nakahara S et al., Cancer Res 2003 Jul. 15, 63(14): 4112-8). Specifically, peripheral blood mononuclear cells (PBMCs) isolated from a normal volunteer (HLA-A*2402 positive) by Ficoll-Plaque (Pharmacia) solution were separated by adherence to a plastic tissue culture dish (Becton Dickinson) so as to enrich them as the monocyte fraction. The monocyte-enriched population was cultured in the presence of 1000 U/ml of granulocyte-macrophage colony-stimulating factor (GM-CSF) (R&D System) and 1000 U/ml of interleukin (IL)-4 (R&D System) in AIM-V Medium (Invitrogen) containing 2% heat-inactivated autologous serum (AS). After 7 days of culture, the cytokine-induced DCs were pulsed with 20 micro g/ml of each of the synthesized peptides in the presence of 3 micro g/ml of beta 2-microglobulin for 3 hr at 37 degrees C. in AIM-V Medium. The generated cells appeared to express DC-associated molecules, such as CD80, CD83, CD86 and HLA class II, on their cell surfaces (data not shown). These peptide-pulsed DCs were then inactivated by Mitomycin C (MMC) (30 micro g/ml for 30 min) and mixed at a 1:20 ratio with autologous CD8+ T cells, obtained by positive selection with CD8 Positive Isolation Kit (Dynal). These cultures were set up in 48-well plates (Corning); each well contained 1.5×10^4 peptide-pulsed DCs, 3×10^5 CD8+ T cells and 10 ng/ml of IL-7 (R&D System) in 0.5 ml of AIM-V/2% AS medium. Three days later, these cultures were supplemented with IL-2 (CHIRON) to a final concentration of 20 IU/ml. On day 7 and 14, the T cells were further stimulated with the autologous peptide-pulsed DCs. The DCs were prepared each time by the same way described above. CTL was tested against peptide-pulsed A24LCL cells after the 3rd round of peptide stimulation on day 21 (Tanaka H et al., Br J Cancer 2001 Jan. 5, 84(1): 94-9; Umano Y et al., Br J Cancer 2001 Apr. 20, 84(8): 1052-7; Uchida N et al., Clin Cancer Res 2004 Dec. 15, 10(24): 8577-86; Suda T et al., Cancer Sci 2006 May, 97(5): 411-9; Watanabe T et al., Cancer Sci 2005 August, 96(8): 498-506).
(§1) To examine specific CTL activity, interferon (IFN)-gamma enzyme-linked immunospot (ELISPOT) assay and IFN-gamma enzyme-linked immunosorbent assay (ELISA) were performed. Specifically, peptide-pulsed A24LCL (1×10^4/well) was prepared as stimulator cells. Cultured cells in 48 wells were used as responder cells. IFN-gamma ELISPOT assay and IFN-gamma ELISA assay were performed under manufacture procedure.

[2] = system: peptide-pulsed A24LCL cells; assay: IFN-gamma ELISA assay on CTL lines established with CDCA1 peptides; type: cell-based, human; conditions: CTL line vs peptide-pulsed target cells, compared with target cells not pulsed
Experimental: CTLs were expanded in culture using the method similar to the one described by Riddell et al. (Walter E A et al., N Engl J Med 1995 Oct. 19, 333(16): 1038-44; Riddell S R et al., Nat Med 1996 February, 2(2): 216-23). A total of 5×10^4 CTLs were suspended in 25 ml of AIM-V/5% AS medium with 2 kinds of human B-lymphoblastoid cell lines, inactivated by MMC, in the presence of 40 ng/ml of anti-CD3 monoclonal antibody (Pharmingen). One day after initiating the cultures, 120 IU/ml of IL-2 were added to the cultures. The cultures were fed with fresh AIM-V/5% AS medium containing 30 IU/ml of IL-2 on days 5, 8 and 11 (Tanaka H et al., Br J Cancer 2001 Jan. 5, 84(1): 94-9; Umano Y et al., Br J Cancer 2001 Apr. 20, 84(8): 1052-7; Uchida N et al., Clin Cancer Res 2004 Dec. 15, 10(24): 8577-86; Suda T et al., Cancer Sci 2006 May, 97(5): 411-9; Watanabe T et al., Cancer Sci 2005 August, 96(8): 498-506).
as §1

[3] = system: target cells pulsed with peptide; assay: IFN-gamma ELISA assay on CTL clone established by limiting dilution; type: cell-based, human; conditions: CTL clone by limiting dilution vs peptide-pulsed target cells, compared with the control
Experimental: The dilutions were made to have 0.3, 1, and 3 CTLs/well in 96 round-bottomed micro titer plate (Nalge Nunc International). CTLs were cultured with 1×10^4 cells/well of 2 kinds of human B-lymphoblastoid cell lines, 30 ng/ml of anti-CD3 antibody, and 125 U/ml of IL-2 in a total of 150 micro 1/well of AIM-V Medium containing 5% AS. 50 micro 1/well of IL-2 were added to the medium 10 days later so to reach a final concentration of 125 U/ml IL-2. CTL activity was tested on the 14th day, and CTL clones were expanded using the same method as described above (Uchida N et al., Clin Cancer Res 2004 Dec. 15, 10(24): 8577-86; Suda T et al., Cancer Sci 2006 May, 97(5): 411-9; Watanabe T et al., Cancer Sci 2005 August, 96(8): 498-506).
as §1

[4] = system: COS7 cells transfected with CDCA1 and HLA-A*2402; assay: Specific CTL activity against target cells exogenously expressing CDCA1 and HLA-A*2402; type: cell-based
Source text: The cDNA encoding an open reading frame of target genes or HLA-A24 was amplified by PCR. The PCR-amplified product was cloned into pCAGGS vector. The plasmids were transfected into COS7, which is the target genes and HLA-A24-null cell line, using lipofectamine 2000 (Invitrogen) according to the manufacturer's recommended procedures. After 2 days from transfection, the transfected cells were harvested with versene (Invitrogen) and used as the target cells (5×10^4 cells/well) for CTL activity assay.
The established CTL lines raised against these peptides were examined for their ability to recognize target cells that exogenously express CDCA1 and HLA-A*2402 molecule. Specific CTL activity against COS7 cells which transfected with both the full length of CDCA1 and HLA-A*2402 molecule gene (a specific model for the target cells that exogenously express CDCA1 and HLA-A*2402 gene) was tested using the CTL lines raised by corresponding peptide as the effecter cells. COS7 cells transfected with either full length of CDCA1 genes or HLA-A*2402 were prepared as control.

Row | Sequence | IFN-gamma production of induced CTLs (ELISPOT) [1] | IFN-gamma production of CTL line (ELISA) [2] | IFN-gamma production of CTL clone (ELISA) [3] | specific CTL activity ([4]; CTL clone vs COS7 cells transfected with both CDCA1 and HLA-A*2402) | specific CTL activity ([4]; CTL clone vs target cells expressing either HLA-A*2402 or CDCA1 (controls))
1 | IYMRALQIVY [SEQ ID NO: 11, 10-mer peptide derived from CDCA1, start position 48] | potent IFN-gamma production | potent IFN-gamma production |  |  | 
2 | KTEENSFKRL [SEQ ID NO: 4, 10-mer peptide derived from CDCA1, start position 335] | potent IFN-gamma production | potent IFN-gamma production |  |  | 
3 | MYPHLMEGFL [SEQ ID NO: 2, 10-mer peptide derived from CDCA1, start position 74] | no specific IFN-gamma production | no specific IFN-gamma production |  |  | 
4 | RFLSGIINFI [SEQ ID NO: 3, 10-mer peptide derived from CDCA1, start position 119] | potent IFN-gamma production | potent IFN-gamma production |  |  | 
5 | RYNVAEIVI [SEQ ID NO: 22, 9-mer peptide derived from CDCA1, start position 8] | potent IFN-gamma production | potent IFN-gamma production |  |  | 
6 | SFPRYNVAEI [SEQ ID NO: 14, 10-mer peptide derived from CDCA1, start position 5] | potent IFN-gamma production | potent IFN-gamma production |  |  | 
7 | VYGIRLEHF [SEQ ID NO: 23, 9-mer peptide derived from CDCA1, start position 56] | potent IFN-gamma production | potent IFN-gamma production | potent IFN-gamma production | high specific CTL activity | no significant specific CTL activity
